Test results taken from patent US8906644B2, “Method for culture of hepatocytes” (The University of Tokyo, priority 2009, dated 2014).

Biological target: T1, drug transporter (MRP2) (Rattus norvegicus, UniProt Q63120)
T1 construct: endogenous in cells; host or cells: primary hepatocytes in collagen gel sandwich culture on a PDMS membrane device, with a polystyrene device for comparison
Assay: Measurement of MRP2 activity with CDCF (Bile Excretion Index) in collagen gel sandwiched hepatocytes
Assay type: in vitro ADME
Settings: Day 4 of culture, 5 μM CDCF, 5 minutes
Method: Using the collagen gel sandwiched hepatocytes that were cultured on the PDMS membrane culturing device prepared in Example 1 and forming bile canaliculi, the activity of a drug transporter (MRP2) was measured by incorporation of 5-(and-6)-carboxy-2′,7′-dichlorofluorescein (CDCF) as follows according to a Non-patent Document (Liu X et al., Am J Physiol, 1999, vol. 277, pp. 12-21). Further, hepatocytes cultured in a conventional polystyrene culturing device were used for comparison.
Ca/Mg(+) HBSS was prepared before use by mixing 50 mL of HBSS (Invitrogen, 14175-079), 500 μL of 14 g/L CaCl2 and 500 μL of 10 g/L MgCl2/6H2O together. In terms of the CDCF solution, a 5 μM CDCF solution was prepared before use by using 1 mM CDCF (in dimethyl sulfoxide: Molecular Probes, C-369) and Ca/Mg(+) HBSS, and the prepared solution was incubated in a water bath at 37° C. […]
Two hepatocyte cultures were prepared 4 days after the beginning of the culture (3 days after the deposition of the gel). […] A 100-μL aliquot was collected from each supernatant and subjected to measurement with a fluorescence microplate reader with excitation at 492 nm and fluorescence at 530 nm to quantify the amount of CDCF. […] The Bile Excretion Index (BEI) was calculated according to the following equation based on the fluorescent brightness per protein amount (Accumulation).

T1 sequence (Q63120 whole entry): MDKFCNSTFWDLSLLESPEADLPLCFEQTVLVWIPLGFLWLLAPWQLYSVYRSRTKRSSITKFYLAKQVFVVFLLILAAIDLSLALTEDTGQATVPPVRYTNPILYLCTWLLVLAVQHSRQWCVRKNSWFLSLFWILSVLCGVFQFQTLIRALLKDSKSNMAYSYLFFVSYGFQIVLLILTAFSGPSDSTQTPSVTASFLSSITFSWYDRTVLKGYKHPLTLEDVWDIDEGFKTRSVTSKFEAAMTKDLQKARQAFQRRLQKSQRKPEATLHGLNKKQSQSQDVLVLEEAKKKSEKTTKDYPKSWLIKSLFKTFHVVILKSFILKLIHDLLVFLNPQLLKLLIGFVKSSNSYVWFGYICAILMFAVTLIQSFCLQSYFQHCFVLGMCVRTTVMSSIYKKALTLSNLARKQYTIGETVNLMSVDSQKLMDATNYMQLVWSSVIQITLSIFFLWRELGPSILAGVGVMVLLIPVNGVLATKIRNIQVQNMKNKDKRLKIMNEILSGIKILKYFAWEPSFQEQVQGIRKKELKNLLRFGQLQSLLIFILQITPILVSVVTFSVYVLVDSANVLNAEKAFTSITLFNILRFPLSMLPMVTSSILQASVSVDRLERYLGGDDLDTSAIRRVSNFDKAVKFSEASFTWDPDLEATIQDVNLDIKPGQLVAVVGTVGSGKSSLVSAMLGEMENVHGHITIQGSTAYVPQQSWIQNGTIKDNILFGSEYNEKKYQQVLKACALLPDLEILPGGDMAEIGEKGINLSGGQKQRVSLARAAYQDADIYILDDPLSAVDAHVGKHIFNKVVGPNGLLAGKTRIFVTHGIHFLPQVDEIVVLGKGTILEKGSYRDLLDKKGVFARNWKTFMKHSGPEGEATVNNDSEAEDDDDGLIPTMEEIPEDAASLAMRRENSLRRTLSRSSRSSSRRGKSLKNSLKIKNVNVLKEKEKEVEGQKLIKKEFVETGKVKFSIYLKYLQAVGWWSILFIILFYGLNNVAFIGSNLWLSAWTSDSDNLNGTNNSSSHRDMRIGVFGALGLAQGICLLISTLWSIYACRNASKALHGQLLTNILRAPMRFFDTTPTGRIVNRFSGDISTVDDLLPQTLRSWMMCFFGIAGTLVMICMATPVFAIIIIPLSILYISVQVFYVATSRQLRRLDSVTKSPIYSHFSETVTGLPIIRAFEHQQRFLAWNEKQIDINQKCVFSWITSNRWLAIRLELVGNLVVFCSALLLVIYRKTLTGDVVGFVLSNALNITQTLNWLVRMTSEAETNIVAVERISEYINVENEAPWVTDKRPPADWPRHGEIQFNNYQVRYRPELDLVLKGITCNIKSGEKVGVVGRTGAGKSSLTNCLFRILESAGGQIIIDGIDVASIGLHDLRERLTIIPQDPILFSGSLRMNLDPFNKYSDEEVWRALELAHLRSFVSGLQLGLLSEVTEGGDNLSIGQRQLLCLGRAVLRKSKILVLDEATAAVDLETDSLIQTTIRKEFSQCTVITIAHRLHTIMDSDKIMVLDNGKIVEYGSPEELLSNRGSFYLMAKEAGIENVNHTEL

Bile Excretion Index (BEI) (collagen gel sandwich on conventional polystyrene (PS) substrate): about 20%
Bile Excretion Index (BEI) (collagen gel sandwich on gas-permeable PDMS membrane culturing device): about 40%
Substance: 5-(and-6)-carboxy-2′,7′-dichlorofluorescein [CDCF]
